Test results reported in patent publication US4797362A (priority 1985, dated 1989).
Read-outs that look alike come from different tables or passages of the source. Numbered stars: 1 amine (or outer) side, 2 acyl side, 3 side chain; on linkers, the order of the positions; unused ones are H or OH. Peptide text beside a SMILES is read from it. CO = O=C([*:1])[*:2]

What was measured:
[1] = test system: alkaline protease Ya (enzyme Ya) produced by Bacillus sp. Y (FERM BP-1029); type: biochemical; conditions: for Relative Activity Enzyme Ya: pH 7.2, 30 min
[2] = test system: alkaline protease Yb (enzyme Yb) produced by Bacillus sp. Y (FERM BP-1029); type: biochemical; conditions: for Relative Activity Enzyme Yb: pH 7.2, 30 min

Q: Which results are given for `O=S(=O)(F)Cc1ccccc1` [PMSF]?
A: Inhibition of enzyme Ya (in words) [1]: inhibited; Relative Activity Enzyme Ya ([1]; 1000 µM): 0; Inhibition of enzyme Yb (in words) [2]: inhibited; Relative Activity Enzyme Yb ([2]; 1000 µM): 1

Q: How did the “Relative Activity Enzyme Ya” value [1] turn out when `NC(N)=O` [Urea] was run?
A: Its value is 130.

Q: What about the “Relative Activity Enzyme Yb” value [2] of the same compound?
A: Its value is 82.

Q: Which “Inhibition of enzyme Ya (in words)” value [1] does the source give for Chymostatin here?
A: The value was “not inhibited”.

Q: And the “Relative Activity Enzyme Ya” value [1]?
A: The value was 77.

Q: And the “Inhibition of enzyme Yb (in words)” value [2]?
A: Its value is “not inhibited”.

Q: And the “Relative Activity Enzyme Yb” value [2]?
A: Its value is 75.

Q: Which results are given for `O=C(O)CN(CCN(CC(=O)O)CC(=O)O)CC(=O)O` [EDTA]?
A: Inhibition of enzyme Ya (in words) [1]: not inhibited; Relative Activity Enzyme Ya ([1]; 5000 µM): 97; Inhibition of enzyme Yb (in words) [2]: not inhibited; Relative Activity Enzyme Yb ([2]; 5000 µM): 100

Q: Which results are given for `O=C(O)c1cc[c]([Hg][Cl])cc1` [PCMB]?
A: Inhibition of enzyme Ya (in words) [1]: not inhibited; Relative Activity Enzyme Ya ([1]; 1000 µM): 122; Inhibition of enzyme Yb (in words) [2]: not inhibited; Relative Activity Enzyme Yb ([2]; 1000 µM): 92

Q: Which results are given for `CC(C)[C@H](NC(=O)[C@H](CCCNC(=N)N)NC(=O)N[C@@H](Cc1ccccc1)C(=O)O)C(=O)N[C@H](C=O)CCCNC(=N)N` [Antipain] ({Phe-CO}-Arg-Val-Arg-aldehyde)?
A: Inhibition of enzyme Ya (in words) [1]: not inhibited; Relative Activity Enzyme Ya [1]: 124; Inhibition of enzyme Yb (in words) [2]: not inhibited; Relative Activity Enzyme Yb [2]: 87
